Structures are written as SMILES. “Also recorded” adds a separate entry of the source.

The values that follow come from patent publication US11229608B2 (priority 2019, dated 2022).

The subject of the series is ornamental vinca (vincire) plants. The series is described as follows: Phytotoxicity assessment on vinca plants after foliar application. Type of series: in vivo. On the set-up: key to Phytotoxicity rating: −: non-phytotoxic; +: minimal phytotoxic; ++: moderate phytotoxic; +++: heavy phytotoxic. The conditions noted are these: 72 hours; for Phytotoxicity rating: visual. How it is done:
Ornamental vinca plants are susceptible to metal phytotoxicity such as Cu and used as industry standard. 3 plants were foliar sprayed with each treatments and controls at three different rates, 300 ppm, 600 ppm and 1,000 ppm. Test solutions were foliar applied using hand-operated pump mist sprayer till run off. Afterwards, plants were placed in plant growth chamber (Panasonic MLR-325H-PA) programmed to simulate summer conditions (maximum temperature set at 31° C.). Visual observations were conducted after 72 hours application to assess the overall plant health and phytotoxicity rating.
The assessment was done visually based on size and number of burns on plants after 72 hours of foliar application. Vinca (vincire) plant phytotoxicity rating on a scale of “−” non-phytotoxic, “+” minimal phytotoxic, “++” moderate phytotoxic, and (+++) heavy phytotoxic.

In the case of `O=[N+]([O-])[O-].O=[N+]([O-])[O-].[Cu+2]` [Copper nitrate], the “phytotoxicity (in words)” value (1,000 μg/ml (ppm)) is reported as “severely phytotoxic”. The Phytotoxicity rating result (metal concentration 1000 μg/ml) is reported as “+++”.
Turning to `O=[N+]([O-])[O-].O=[N+]([O-])[O-].[Zn+2]` [Zinc nitrate], the “phytotoxicity (in words)” value (300 μg/ml) is “non-phytotoxic”, the “phytotoxicity (in words)” value (600 μg/ml) is “moderately phytotoxic; also recorded: minimally phytotoxic” and the “phytotoxicity (in words)” value (1,000 μg/ml (ppm)) was “moderately phytotoxic”. Besides, the Phytotoxicity rating entry is, setting by setting: (metal concentration 300 μg/ml) “−”; (metal concentration 600 μg/ml) “+”; (metal concentration 1000 μg/ml) “++”.
